Entries after “also recorded” stand apart in the source; their conditions may differ.
How the values were obtained:
HEK293T cells = assay: Transmission electron microscopy of treated cells; format: cell-based, human; settings: 2.5 μM, 6 h vs DMSO, FIG. 5E
Procedure: FIG. 5E is a transmission electron microscopy image of HEK293T cells treated with YOK1104 (2.5 μM, 6 h) or DMSO (control), where arrows indicate autolysosomes and asterisks indicate ER fragments inside autolysosomes (scale bars, 500 nm (1st & 2nd column), 200 nm (3rd column)),
For conventional transmission electron microscopy, HEK293T cells were treated with 2.5 μM YOK1104 for 6 h, scraped from culture dish and pelleted by centrifugation. The pellets were resuspended in 2.5% glutaraldeyhyde in 0.1 M sodium cacodylate buffer (pH 7.4) (Electron Microscopy Sciences) for overnight at 4° C. The fixative was replaced by a cacodylate buffer for the last 6 h, after which the cells were embedded in Epon resin. Subsequently, the cells were cut into 55-nm sections and stained with uranyl acetate and lead citrate using the Reichert Ultracut S Ultramicrotome (Leica Microsystems) and FEI Vitrobot Mark IV (Thermo Scientific), respectively. The cell sections were observed using the 200 kV transmission electron microscope FEI Tecnai G2-F20 (Thermo Scientific).

BiP, PDI, TRIM13 = assay: Immunoblotting of ER proteins under proteotoxic ER stress; format: cell-based, human; settings: HeLa, MG132 2 μM 24 h, YOK1104 2.5 μM 4 h; FIG. 5F
Procedure: FIG. 5F illustrates the immunoblotting analysis results of HeLa cells treated with MG132 (2 μM, 24 h), YOK1104 (2.5 μM, 4 h), or both,
(§1) Cell pellets were washed with phosphate-buffered saline (PBS) and lysed in an SDS-based sample buffer (277.8 mM Tris-HCl, pH 6.8, 4.4% LDS, 44.4% (v/v) glycerol) with beta-mercaptoethanol. Alternatively, cell pellets or protein supernatants were lysed in a 5× Laemmli sample buffer (SDS-based sample buffer). Using SDS-PAGE, whole cell lysates were separated and transferred onto polyvinylidene difluoride membranes at 100 V for 2 h at 4° C. Subsequently, the membrane was blocked with 4% skim milk in PBS solution for 30 min at room temperature and incubated overnight with primary antibodies (see Reference Example 4), followed by incubation with host-specific HRP-conjugated secondary antibodies (Jackson laboratory) (1:10000 dilution). For signal detection, a mixture of ECL solution (Thermo Fisher Scientific) was applied onto the membrane and captured using X-ray films.

TRIM13 [1] = assay: Autophagy flux assay of TRIM13-flag with bafilomycin A1; format: cell-based, human; settings: HeLa TRIM13-flag, 2.5 μM 4 h, with or without bafilomycin A1 200 nM 6 h; FIG. 11M
Procedure: FIG. 11M illustrates the Western blotting results of HeLa cells transfected with TRIM13-flag or negative control empty vector (EV), treated with YOK1104 (2.5 μM, 4 h), and treated with or without bafilomycin A1 (200 nM, 6 h),
as §1

TRIM13-p62 complex = molecular target: T1, TRIM13-p62 complex (Homo sapiens, UniProt Q13501); assay: Co-IP with autophagy flux analysis using TRIM13 pulldown; format: cell-based; settings: HEK293T p62-myc + TRIM13-flag, YOK1104 2.5 μM 4 h, HCQ 10 μM 24 h; FIG. 5K
T1 construct: PCR amplification of a full-length human p62 cDNA fragment; expressed in transfected cells; host or cells: HEK293T
T1 sequence (Q13501 whole entry, the tested form may be a part): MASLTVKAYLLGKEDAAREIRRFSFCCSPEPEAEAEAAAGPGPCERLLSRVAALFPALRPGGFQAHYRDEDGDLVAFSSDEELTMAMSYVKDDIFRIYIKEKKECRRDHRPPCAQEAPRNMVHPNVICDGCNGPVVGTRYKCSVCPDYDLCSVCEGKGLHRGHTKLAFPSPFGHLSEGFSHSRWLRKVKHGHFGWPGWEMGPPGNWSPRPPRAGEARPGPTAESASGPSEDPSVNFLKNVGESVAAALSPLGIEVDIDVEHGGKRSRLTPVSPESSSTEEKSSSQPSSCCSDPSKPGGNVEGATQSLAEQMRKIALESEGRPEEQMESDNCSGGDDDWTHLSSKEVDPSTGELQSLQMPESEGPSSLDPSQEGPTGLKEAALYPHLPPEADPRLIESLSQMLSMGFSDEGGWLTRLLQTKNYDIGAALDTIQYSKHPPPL
T1 sequence (O60858 whole entry partner, the tested form may be a part): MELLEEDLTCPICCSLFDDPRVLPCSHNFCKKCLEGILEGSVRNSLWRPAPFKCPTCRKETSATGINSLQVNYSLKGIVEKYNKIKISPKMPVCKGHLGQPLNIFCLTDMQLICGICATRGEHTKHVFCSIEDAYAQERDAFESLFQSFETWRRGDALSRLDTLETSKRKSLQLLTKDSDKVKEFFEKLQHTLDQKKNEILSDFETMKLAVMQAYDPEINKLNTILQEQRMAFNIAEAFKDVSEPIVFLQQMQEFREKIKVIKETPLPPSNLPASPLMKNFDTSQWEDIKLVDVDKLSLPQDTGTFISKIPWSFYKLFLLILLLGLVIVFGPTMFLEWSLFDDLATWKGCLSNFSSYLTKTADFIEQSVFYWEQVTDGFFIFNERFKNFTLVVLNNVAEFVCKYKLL
Procedure: FIG. 4I illustrates the Co-IP assay results in HEK293T cells treated with HCQ (10 μM, 24 h), tannic acid (30 μM, 24 h), or both, and co-transfected (24 h) with p62-myc and TRIM13-flag,
FIG. 5K illustrates the Co-IP assay results in HEK293T cells co-transfected with p62-myc and TRIM13-flag (24 h) or transfected with negative control empty vector (EV) and treated with HCQ (10 μM, 24 h), YOK1104 (2.5 μM, 4 h), or both, and
To test protein interaction, co-immunoprecipitation assays were performed. For exogenous co-IP, HEK293T cells were transfected with recombinant p62, BiP, TRIM13, reticulophagy regulator 1 (FAM134B), reticulon 3 (RTN3) or ATZ (Z variant E342K) using Lipofectamine 2000. The cell pellets were scraped and pelleted by centrifugation, resuspended and lysed in an immunoprecipitation buffer (IP buffer) [50 mM Tris-HCl pH 7.5, 150 mM NaCl, 0.5% Triton X-100, 1 mM EDTA, 1 mM phenylmethylsulfonyl fluoride (PMSF; Roche) and protease inhibitor cocktail (Sigma)] on a rotor at 4° C. for 30 min. Next, the supernatant and remaining pellets were passed through a 26-gauge 1 mL syringe 15 times and centrifuged at 13,000 g at 4° C. and collected for the supernatant, to which normal mouse IgG (Santa Cruz) and Protein A/G-Plus agarose beads (Santa Cruz) were added to preclear the lysate on a rotor at 4° C. overnight. The cell lysate was then incubated with M2 FLAG-affinity Gel agarose beads (Sigma) on a rotor at 4° C. for 3 h. The gel beads were washed four times with IP buffer, resuspended in 2× Laemmli Sample Buffer, separated by SDS-PAGE and analyzed by immunoblotting with specified antibodies.

TRIM13 [2] = assay: In vivo oligomerization assay of TRIM13-flag (non-reducing SDS-PAGE); format: cell-based, human; settings: HEK293T, MG132 2 μM 24 h, YOK1104 2.5 μM 4 h; FIG. 5L
Procedure: FIG. 4H illustrates the in vivo oligomerization assay results of TRIM13-flag in HEK293T cells treated with HCQ (10 μM, 24 h), tannic acid (30 μM, 24 h), or both,
FIG. 5L illustrates the In vivo oligomerization assay results of TRIM13-flag in HEK293T cells treated with MG132 (2 μM, 24 h) and with or without YOK1104 (2.5 μM, 4 h).
HEK293T cells were transfected with TRIM13-flag using Lipofectamine 2000 and treated with hydroxychloroquine (Sigma) for 24 h. To lyse the cells, the cells were subjected to a cycle of freezing/thawing and centrifuged at 13,000 g for 10 min after 30 min incubation on ice for supernatant collection. Protein concentration was measured using the Pierce BCA Protein Assay Kit (Thermo Fisher Scientific). Next, a non-reducing 4×LDS sample buffer was added to the sample lysate and followed by boiling at 100° C. for 10 min. The samples were loaded on a 3% stacking and 8% separating SDS-PAGE. Immunoblotting assays were performed using an anti-Flag antibody (Sigma) to visualize the oligomeric complexes of TRIM13.

HeLa cells [3] = assay: Western blotting of ER stress and apoptosis in tannic acid-treated cells; format: cell-based, human; settings: tannic acid 30 μM 24 h, YTK1105 5 μM 9 h, HCQ 10 μM 24 h, FIG. 5G
Procedure: FIG. 5G illustrates the Western blotting analysis results of HeLa cells treated with HCQ (10 μM, 24 h), YTK1105 (5 μM, 9 h), or both in the presence or absence of tannic acid (30 μM, 24 h),
as §1

HeLa cells [4] = assay: ER expansion visualization by KDEL immunostaining; format: cell-based, human; settings: tannic acid 30 μM 24 h with YTK1105 2.5 μM 5 h or rapamycin 2 μM 18 h, FIGS. 5H, 5I
Procedure: FIG. 5H illustrates the immunostaining results of KDEL signals in HeLa cells treated with or without tannic acid (30 μM, 24 h) and with YTK1105 (2.5 μM, 5 h) or rapamycin (2 μM, 18 h) (scale bar, 10 μm),
To observe cellular localization of proteins, cells were cultured on cover slips coated with poly-L-lysine (Sigma). The cells were fixed with 4% paraformaldehyde in PBS (pH 7.4) for 15 min at room temperature and washed three times with PBS for 5 min. The cells were permeabilized with 0.5% Triton X-100 in PBS solution for 15 min and washed three times with PBS for 5 min. The cells were blocked with 2% BSA in PBS solution for 1 h at room temperature. After blocking, the cells were incubated overnight at 4° C. with a primary antibody diluted in 2% BSA/PBS solution. […] Confocal images were taken by a laser scanning confocal microscope 510 Meta (Zeiss) and analyzed by Zeiss LSM Image Browser (ver. 4.2.0.121).
Using confocal microscopy of cells analyzed by immunocytochemistry, ER expansion was visualized by considered when KDEL- or calnexin-labelled ER occupied more than 80% of cell area. Furthermore, the ER area was calculated by ImageJ (NIH, Bethesda, v1.52) and the background threshold was manually defined and set for all images. The ER area was calculated and marked from the total cell area as a fraction after borders of each cell were set.

SMILES	delivery of ER compartments to autolysosomes; autophagosomes and autolysosomes by transmission electron microscopy (HEK293T cells)	degradation of BiP, PDI and TRIM13 following up-modulation by proteotoxic ER stress (BiP, PDI, TRIM13)	autophagic degradation of TRIM13 (TRIM13 [1])	autophagic degradation of the TRIM13-p62 complex (TRIM13-p62 complex)	degradation of oligomeric vs monomeric species of TRIM13 (TRIM13 [2])	rescue from ER stress and apoptosis (HeLa cells [3])	ER morphology (swelling), KDEL signals (HeLa cells [4])
CC(C)NC[C@@H](O)COc1ccc(OCc2ccccc2)c(OCc2ccccc2)c1 [YOK1104, (R)-1-(3,4-bis(benzyloxy)phenoxy)-3-(isopropylamino)propan-2-ol]	readily exhibited an abundance of autophagosomes and autolysosomes; also recorded: displayed the accumulation of ER fragments within their interior	readily facilitated the degradation of BiP and PDI as well as TRIM13	drove TRIM13 to autophagic degradation	enhanced autophagic degradation of the TRIM13-p62 complex	selectively induced the degradation of oligomeric species but not that of monomeric species of TRIM13		
Cl.OCCNCc1ccc(OCc2ccccc2)c(OCc2ccccc2)c1 [YTK1105, 2-((3,4-bis(benzyloxy)benzyl)amino)ethan-1-ol hydrochloride]						rescued tannic acid-treated cells from ER stress and apoptosis in an autophagy-dependent manner	readily restored

Source: patent US20220323379A1, “P62 LIGAND COMPOUND AND ER-PHAGY-PROMOTING USE THEREOF” (PROTECH, INC., priority 2019, published 2022)
